Data: the supplement of paper PMC10307832

What was measured:
Experiment in all cases: relative viability (nuclei count vs DMSO), 5 days (fraction); higher = more cells survive
Doramapimod + Linsitinib = compound: Cc1ccc(-n2nc(C(C)(C)C)cc2NC(=O)Nc2ccc(OCCN3CCOCC3)c3ccccc23)cc1 [Doramapimod] + C[C@]1(O)C[C@@H](c2nc(-c3ccc4ccc(-c5ccccc5)nc4c3)c3c(N)nccn32)C1 [Linsitinib] (partner 1 µM)
Outline: (§1)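 The day after seeding in 1536-well plates, lung cancer cell lines were treated by pin tool with a single drug, or with a fixed anchor-drug dose together with five library-drug doses (not always all listed) in √10 steps. After 5 days, a combined fix-and-stain solution (final 0.05% Triton X-100, 1% formaldehyde, 1 ug/ml Hoechst) was added. Nuclei counted on 4× images gave relative viability as treated counts over vehicle counts, reported as the median of duplicate plates.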

RAF265 + Phenformin = compound: Cn1c(Nc2ccc(C(F)(F)F)cc2)nc2cc(Oc3ccnc(-c4ncc(C(F)(F)F)[nH]4)c3)ccc21 [RAF265] + N=C(N)NC(=N)NCCc1ccccc1 [Phenformin] (partner 250 µM)
Outline: as §1

IPA-3 + Vorinostat = compound: C1=CC=C2C(=C1)C=CC(=C2SSC3=C(C=CC4=CC=CC=C43)O)O [IPA-3] + O=C(CCCCCCC(=O)Nc1ccccc1)NO [Vorinostat] (partner 1 µM)
Outline: as §1

IPA-3 + Tozasertib = compound: C1=CC=C2C(=C1)C=CC(=C2SSC3=C(C=CC4=CC=CC=C43)O)O [IPA-3] + Cc1cc(Nc2cc(N3CCN(C)CC3)nc(Sc3ccc(NC(=O)C4CC4)cc3)n2)n[nH]1 [Tozasertib] (partner 0.1 µM)
Outline: as §1

Row | Cell Line | relative viability (Doramapimod + Linsitinib; first compound 0.02 µM) | relative viability (Doramapimod + Linsitinib; first compound 0.06325 µM) | relative viability (Doramapimod + Linsitinib; first compound 0.2 µM) | relative viability (Doramapimod + Linsitinib; first compound 0.6325 µM) | relative viability (Doramapimod + Linsitinib; first compound 2 µM) | relative viability (RAF265 + Phenformin; first compound 0.01 µM) | relative viability (RAF265 + Phenformin; first compound 0.03162 µM) | relative viability (RAF265 + Phenformin; first compound 0.1 µM) | relative viability (RAF265 + Phenformin; first compound 0.3162 µM) | relative viability (RAF265 + Phenformin; first compound 1 µM) | relative viability (IPA-3 + Vorinostat; first compound 0.2 µM) | relative viability (IPA-3 + Vorinostat; first compound 0.6325 µM) | relative viability (IPA-3 + Vorinostat; first compound 2 µM) | relative viability (IPA-3 + Vorinostat; first compound 6.325 µM) | relative viability (IPA-3 + Vorinostat; first compound 20 µM) | relative viability (IPA-3 + Tozasertib; first compound 0.2 µM) | relative viability (IPA-3 + Tozasertib; first compound 0.6325 µM) | relative viability (IPA-3 + Tozasertib; first compound 2 µM) | relative viability (IPA-3 + Tozasertib; first compound 6.325 µM) | relative viability (IPA-3 + Tozasertib; first compound 20 µM)
1 | HCC-78 | 0.399 | 0.429 | 0.466 | 0.527 | 0.514 | 0.87 | 0.847 | 0.832 | 0.647 | 0.652 | 0.464 | 0.437 | 0.476 | 0.442 | 0.489 | 0.508 | 0.429 | 0.448 | 0.402 | 0.398
2 | HCC-366 | 0.561 | 0.515 | 0.475 | 0.673 | 0.548 | 0.594 | 0.552 | 0.596 | 0.435 | 0.45 | 0.518 | 0.287 | 0.339 | 0.341 | 0.318 | 0.176 | 0.132 | 0.0972 | 0.141 | 0.0773
3 | HCC-827 | 1 | 0.918 | 0.952 | 0.933 | 0.752 | 0.431 | 0.444 | 0.41 |  | 0.398 | 0.87 | 0.871 | 0.739 | 0.864 | 0.771 | 0.446 | 0.423 | 0.402 | 0.442 | 0.438
4 | HOP-62 | 0.88 | 1 | 1.17 | 0.91 | 0.992 | 0.676 | 0.505 | 0.638 | 0.557 | 0.576 | 0.72 | 0.556 | 0.597 | 0.698 | 0.717 | 0.388 | 0.312 | 0.395 | 0.382 | 0.402
5 | LC-2-ad | 0.856 | 0.802 | 0.95 | 0.88 | 0.684 | 0.628 | 0.581 | 0.586 | 0.394 | 0.455 | 0.72 | 0.681 | 0.788 | 0.726 | 0.76 | 0.48 | 0.467 | 0.531 | 0.424 | 0.458
6 | LCLC-97TM1 | 0.181 | 0.169 | 0.161 | 0.191 | 0.17 | 0.42 | 0.384 | 0.21 | 0.252 | 0.148 | 1.11 | 0.875 | 0.724 | 0.575 | 1.12 | 0.255 | 0.178 | 0.259 | 0.216 | 0.189
7 | LCLC-103H | 0.99 | 1.06 | 1.09 | 1.09 | 1.03 | 0.333 | 0.346 | 0.305 | 0.319 | 0.285 | 0.849 | 0.807 | 0.805 | 0.865 | 0.867 | 0.582 | 0.528 | 0.577 | 0.443 | 0.539
8 | LK-2 | 0.284 | 0.388 | 0.348 | 0.42 | 0.22 | 0.445 | 0.417 | 0.385 | 0.63 | 0.402 | 0.321 | 0.321 | 0.429 | 0.553 | 0.506 | 0.168 | 0.192 | 0.176 | 0.142 | 0.155
